{"source": "patent US20140296143A1", "about": "“Angiotensin-(1-7) As A Chemoprevention Agent” (Wake Forest Innovations, priority 2008, published 2014)", "key": {"[1]": {"test_system": "chorioallantoic membrane (CAM)", "experiment": "Chorioallantoic membrane (CAM) assay of neovascularization", "format": "in vivo, chicken", "description": "Chicken eggs were incubated for four days in constant humidity at 37° C. […] The extent of neovascularization was quantified by counting branch points, as illustrated in FIG. 14 showing about a 50% reduction in branch points. No difference was found in the number of branch points between the two groups prior to treatment with Ang-(1-7)."}, "COX-2": {"test_system": "COX-2", "experiment": "COX-2 protein (Western blot) and mRNA (RT real-time PCR) in A549 cells", "format": "cell-based, human", "description": "(§1) For reverse-transcriptase real-time PCR, RNA was isolated from cells or tissue, using the TRIzol reagent (GIBCO Invitrogen Corp., Carlsbad, Calif.), as directed by the manufacturer. The RNA concentration and integrity were assessed using an Agilent 2100 Bioanalyzer with an RNA 6000 nano LabChip (Agilent Technologies, Palo Alto, Calif.). Approximately 1 μg of total RNA was reverse transcribed using avian myeloblastosis virus reverse transcriptase (RT) in a 20 μL mixture containing deoxyribonucleotides, random hexamers and RNase inhibitor in RT buffer. Heating the RT reaction product at 95° C. terminated the reaction. For real-time polymerase chain reaction (PCR), 2 μL of the resultant cDNA was added to TaqMan Universal PCR Master Mix (Applied Biosystems, Foster City, Calif.) with a gene-specific primer/probe set (Applied Biosystems, Foster City, Calif.) and amplification was performed on an ABI 7000 Sequence Detection System. […] The results were quantified as Ct values, where Ct is defined as the threshold cycle of PCR at which amplified product is first detected, and expressed as the ratio of target/control (Relative Gene Expression).\nQuiescent A549 lung cancer cells or tumor tissue cut into approximately 1-2 mm^2 size pieces were homogenized in phosphate-buffered saline (PBS; 50 mM NaPO4, pH=7.2, 100 mM NaCl). […] The protein concentration was measured by a modification of the Lowry method. […]"}, "AT1 angiotensin receptor": {"target": "AT1 angiotensin receptor", "conditions": "cited from earlier work"}, "[2]": {"test_system": "poly(ADP-ribose) polymerase (PARP)", "experiment": "Cleaved PARP (caspase-3 cleavage product) in serum-stimulated SK-LU-1 cells", "format": "cell-based, human", "conditions": "SK-LU-1, 10 nM, 4 to 8 hour treatment", "description": "Proteins were separated electrophoretically on SDS polyacrylamide gels, transferred to polyvinyl membranes, and incubated with primary antibodies to proteins of interest. Appropriate horseradish peroxidase (HRP)-conjugated second antibodies were added and immunoreactive products visualized using the enhanced chemoluminescence reagents from Amersham. The density of each immunoreactive product was quantified using the MCID imaging system. Antibodies to proteins that participate in cell signaling, apopotosis, and regulation of the cell cycle are commercially available from a variety of sources.\nSince caspase-3 is activated during apoptosis, an increase in the generation of its […] can be a measure of apoptosis."}, "VEGF mRNA": {"test_system": "VEGF mRNA", "experiment": "VEGF mRNA in A549 cells by RT-PCR", "format": "cell-based, human", "conditions": "100 nM, 2-4 hours", "description": "RNA, isolated from cells or tissue, using the TRIzol reagent (GIBCO Invitrogen, Carlsbad, Calif.), was subjected to reverse transcriptase/real-time polymerase chain reaction as previously described (Tallant et al., Am. J. Physiol. Heart Circ. Physiol., 2005, 289:1560-1566). All reactions were performed in triplicate and 18S ribosomal RNA, amplified using the TaqMan Ribosomal RNA Control Kit (Applied Biosystems), served as an internal control. The results were quantified as Ct values, where Ct is defined as the threshold cycle of PCR at which amplified product is first detected, and defined as relative gene expression (the ratio of target/control). […] The RNA concentration was quantified by UV spectroscopy and any degradation assessed by ethidium bromide staining intensity of 28S and 18S ribosomal RNA following agarose gel electrophoresis. […] Following PCR, the amplification products were separated by polyacrylamide gel electrophoresis, visualized by autoradiography, and analyzed using the MCID imaging system.\nFor reverse-transcriptase real-time PCR, RNA was isolated from cells or tissue, using the TRIzol reagent (GIBCO Invitrogen Corp., Carlsbad, Calif.), as directed by the manufacturer. The RNA concentration and integrity were assessed using an Agilent 2100 Bioanalyzer with an RNA 6000 nano LabChip (Agilent Technologies, Palo Alto, Calif.). […]"}, "COX-1 mRNA": {"test_system": "COX-1 mRNA", "experiment": "COX-1 mRNA in A549 cells", "format": "cell-based, human", "conditions": "quiescent A549 cells, 100 nM, 2, 4, or 8 h", "description": "as §1, with “System. The mixtures were heated at 50° C. for 2 min, at 95° C. for 10 min followed by 40 cycles at 95° C. for 15 sec and 60° C. for 1 min.” for “System.”"}, "[3]": {"test_system": "SK-MES-1 lung cancer cells", "format": "cell-based, human", "quoted_text": "Unless otherwise stated, cells were grown in DMEM with 10% fetal bovine serum (FBS), 100 μg/mL penicillin and 100 units/mL streptomycin in a humidified 37° C. incubator gassed with 5% CO2 and 95% room air. Cells were grown to subconfluence in either 24-well cluster plates or 100 mm dishes and made quiescent by treatment for 48 h with serum-depleted growth media, prior to the experiments outlined below to measure cell growth (^3H-thymidine incorporation), cell signaling or apoptosis.\nSubsequently, the cell monolayer was washed with cold phosphate-buffered saline (PBS; 50 mM NaPO4, 120 mM NaCl, pH=7.2). The adherent cells were precipitated with cold 10% TCA (4° C. for 30 min) and dissolved in 0.2% SDS in 0.1 N NaOH. Incorporated ^3H-thymidine was determined by liquid scintillation spectrometry, as previously described (Freeman, E. J. et al., Hypertension, 1996, 28:104-108). Growth inhibition was defined as a reduction in the amount of ^3H-thymidine incorporation as compared to the mitogen-stimulated controls."}}, "data": [{"smiles": "CC[C@H](C)[C@H](NC(=O)[C@H](Cc1ccc(O)cc1)NC(=O)[C@@H](NC(=O)[C@H](CCCNC(=N)N)NC(=O)[C@@H](N)CC(=O)O)C(C)C)C(=O)N[C@@H](Cc1c[nH]cn1)C(=O)N1CCC[C@H]1C(=O)O", "note": "[Ang-(1-7), Asp-Arg-Val-Tyr-Ile-His-Pro]", "values": [{"measurement": "neovascularization, branch points", "setting": "[1]; 10 nM, 48 hour incubation, n=4, control 58.0±3.6 (n=3)", "result": "29.5±3.6", "unit": "branch points"}, {"measurement": "reduction in branch points", "setting": "[1]; 100 nM, 2-day incubation, FIG. 14", "result": "~50", "unit": "%"}, {"measurement": "COX-2 mRNA", "setting": "COX-2; 100 nM, 2, 4 and 8 h", "result": "significant reduction"}, {"measurement": "COX-2 protein", "setting": "COX-2; 100 nM, 8-h treatment", "result": "marked decrease"}, {"measurement": "IC50 at the AT1 angiotensin receptor", "setting": "AT1 angiotensin receptor; Tallant et al., 1999", "result": "micromolar range"}, {"measurement": "competition at the AT1 receptor", "setting": "AT1 angiotensin receptor; literature", "result": "poor competitor"}, {"measurement": "amount of cleaved PARP", "setting": "[2]", "result": "increase"}, {"measurement": "optimal reduction of VEGF mRNA", "setting": "VEGF mRNA", "result": "greater than 50%"}, {"measurement": "COX-1 mRNA", "setting": "COX-1 mRNA", "result": "no change"}, {"measurement": "IC50", "setting": "[3]; 48 h", "result": 0.4, "unit": "nM"}, {"measurement": "^3H-thymidine incorporation over time of treatment", "setting": "[3]; SK-MES-1, 1% FBS, daily addition of 100 nM", "result": "progressively reduced"}]}]}
